One experiment deals with T1, hFSP1 (human FSP1) (Homo sapiens, UniProt Q9BRQ8).
T1 construct: gene AIFM2; recombinant from E. coli BL21, Ni-NTA purified (His tag implied); HA-tagged in Pfa1 cells for cell assays; cDNA carries C>T:1008 (probably silent)
T1 sequence (Q9BRQ8 2-373): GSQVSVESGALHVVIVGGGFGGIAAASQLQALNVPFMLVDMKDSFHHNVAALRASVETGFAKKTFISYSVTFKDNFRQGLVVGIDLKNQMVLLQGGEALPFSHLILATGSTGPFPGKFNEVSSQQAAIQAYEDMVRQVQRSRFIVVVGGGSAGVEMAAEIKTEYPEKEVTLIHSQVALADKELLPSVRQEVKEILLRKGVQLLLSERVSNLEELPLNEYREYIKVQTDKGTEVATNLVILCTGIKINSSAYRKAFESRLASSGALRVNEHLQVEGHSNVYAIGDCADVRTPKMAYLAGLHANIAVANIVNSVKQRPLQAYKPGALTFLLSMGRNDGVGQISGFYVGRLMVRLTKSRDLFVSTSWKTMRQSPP
The experiment is described as follows: resazurin reduction, fluorescence. It is filed as biochemical. On the technique in general: Resazurin is reduced to fluorescent resorufin, in cell work by metabolically active cells.

For another experiment, the target named is T2, mFsp1 (mouse FSP1) (Mus musculus, UniProt Q8BUE4).
T2 construct: gene Aifm2; recombinant from E. coli BL21, Ni-NTA purified; HA-tagged, codon-optimized in Pfa1 cells for cell assays
T2 sequence (Q8BUE4 2-373): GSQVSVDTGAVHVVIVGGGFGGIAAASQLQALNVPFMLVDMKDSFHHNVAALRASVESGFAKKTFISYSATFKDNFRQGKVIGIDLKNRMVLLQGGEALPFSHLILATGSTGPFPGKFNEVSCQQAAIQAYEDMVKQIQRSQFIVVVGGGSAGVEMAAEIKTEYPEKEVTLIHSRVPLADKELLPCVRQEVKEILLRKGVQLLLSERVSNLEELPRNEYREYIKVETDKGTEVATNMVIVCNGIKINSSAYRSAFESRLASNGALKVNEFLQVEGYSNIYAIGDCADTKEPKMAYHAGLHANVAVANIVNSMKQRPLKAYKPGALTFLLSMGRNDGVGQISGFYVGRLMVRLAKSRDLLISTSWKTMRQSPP
Description: resazurin reduction, fluorescence. The format is biochemical. The source says: resazurin reduction, fluorescence on mFsp1 (mouse FSP1) | both hFSP1 and mFsp1 enzyme activity are equally sensitive to viFSP1

As usually defined, the IC50 is the midpoint of a concentration-inhibition curve.

Structures are written as SMILES. Where two headings read alike, the source gives them in different places.

`COc1ccc(N2CC(=O)C(c3nc(C)cs3)=C2N)c(OC)c1` [viFSP1]: the IC50 at hFSP1 (human FSP1) (read-out: IC50) stood at 34 nM; against mFsp1 (mouse FSP1) it was 83 nM.
As for `Cc1ccc(-c2c(C#N)c(N)n3c(nc4ccccc43)c2C#N)cc1` [iFSP1], at hFSP1 (human FSP1) ([…] NADH, […] resazurin, TBS, […] C), the IC50 result is on record as “dose–response curves for the effect of iFSP1 on the activity of FSP1 mutants”.

These data come from article PMC10643123, “Integrated chemical and genetic screens unveil FSP1 mechanisms of ferroptosis regulation” (Nature Structural & Molecular Biology, 2023).
